# Reference: the supplement of paper PMC10307832
# Columns and labels:
# Assay in all cases: relative viability (nuclei count vs DMSO), 5 days (fraction); higher = more cells survive
# [1] = compound: COc1ccc(-c2ccc3c(N4CCOC[C@@H]4C)nc(N4CCOC[C@@H]4C)nc3n2)cc1CO [AZD8055]
# In short: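 Lung cancer cell lines received five library-drug doses (not always all listed) spaced by √10, pinned on vehicle-anchored 1536-well plates after an overnight stay at 37 °C. Five days later, with no medium change, nuclei were Hoechst-stained, imaged at 4× and counted with MetaXpress. Viability is treated-well nuclei relative to vehicle-well nuclei, as a median across plates. Passing plates had control CV below 25% and at least one doubling.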
# [2] = compound: COc1ccc(-c2ccc3c(N4CCOC[C@@H]4C)nc(N4CCOC[C@@H]4C)nc3n2)cc1CO [AZD8055] + CC1(C)CCC(c2ccc(Cl)cc2)=C(CN2CCN(c3ccc(C(=O)NS(=O)(=O)c4ccc(N[C@H](CCN5CCOCC5)CSc5ccccc5)c(S(=O)(=O)C(F)(F)F)c4)cc3)CC2)C1 [Navitoclax] (partner 0.5 µM)
# In short: (§1)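 Lung cancer cell lines were pin-tool dosed in 1536-well plates on the day after seeding, with either a lone drug or a fixed anchor-drug dose plus five library-drug doses (not always all listed) in √10 steps. Nuclei were counted on 4× images after 5 days. Relative viability is the ratio of treated-well to vehicle-well nuclei counts, with each value a median of duplicate plates.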
# [3] = compound: COc1ccc(-c2ccc3c(N4CCOC[C@@H]4C)nc(N4CCOC[C@@H]4C)nc3n2)cc1CO [AZD8055] + COc1cc2c(Oc3ccc(NC(=O)C4(C(=O)Nc5ccc(F)cc5)CC4)cc3F)ccnc2cc1OCCCN1CCOCC1 [Foretinib] (partner 0.25 µM)
# In short: as §1
# [4] = compound: COc1ccc(-c2ccc3c(N4CCOC[C@@H]4C)nc(N4CCOC[C@@H]4C)nc3n2)cc1CO [AZD8055] + CS(=O)(=O)CCNCc1ccc(-c2ccc3ncnc(Nc4ccc(OCc5cccc(F)c5)c(Cl)c4)c3c2)o1 [Lapatinib] (partner 2 µM)
# In short: as §1
# [5] = compound: COc1ccc(-c2ccc3c(N4CCOC[C@@H]4C)nc(N4CCOC[C@@H]4C)nc3n2)cc1CO [AZD8055] + CS(=O)(=O)N1CCN(Cc2cc3nc(-c4cccc5[nH]ncc45)nc(N4CCOCC4)c3s2)CC1 [Pictilisib] (partner 1 µM)
# In short: as §1
# [6] = compound: COc1ccc(-c2ccc3c(N4CCOC[C@@H]4C)nc(N4CCOC[C@@H]4C)nc3n2)cc1CO [AZD8055] + C[C@@H](Oc1cc(-c2cnn(C3CCNCC3)c2)cnc1N)c1c(Cl)ccc(F)c1Cl [Crizotinib] (partner 1 µM)
# In short: as §1
# [7] = compound: COc1ccc(-c2ccc3c(N4CCOC[C@@H]4C)nc(N4CCOC[C@@H]4C)nc3n2)cc1CO [AZD8055] + C[C@]1(O)C[C@@H](c2nc(-c3ccc4ccc(-c5ccccc5)nc4c3)c3c(N)nccn32)C1 [Linsitinib] (partner 1 µM)
# In short: as §1
# [8] = compound: COc1ccc(-c2ccc3c(N4CCOC[C@@H]4C)nc(N4CCOC[C@@H]4C)nc3n2)cc1CO [AZD8055] + Cc1nc(NC(=O)N2CCC[C@H]2C(N)=O)sc1-c1ccnc(C(C)(C)C(F)(F)F)c1 [Alpelisib] (partner 2 µM)
# In short: as §1
# [9] = compound: COc1ccc(-c2ccc3c(N4CCOC[C@@H]4C)nc(N4CCOC[C@@H]4C)nc3n2)cc1CO [AZD8055] + N=C(N)NC(=N)NCCc1ccccc1 [Phenformin] (partner 250 µM)
# In short: as §1
# [10] = compound: COc1ccc(-c2ccc3c(N4CCOC[C@@H]4C)nc(N4CCOC[C@@H]4C)nc3n2)cc1CO [AZD8055] + Nc1ncn([C@H]2C[C@H](O)[C@@H](CO)O2)c(=O)n1 [Decitabine] (partner 2 µM)
# In short: as §1
# [11] = compound: COc1ccc(-c2ccc3c(N4CCOC[C@@H]4C)nc(N4CCOC[C@@H]4C)nc3n2)cc1CO [AZD8055] + O=C(c1cc(Cc2n[nH]c(=O)c3ccccc23)ccc1F)N1CCN(C(=O)C2CC2)CC1 [Olaparib] (partner 8 µM)
# In short: as §1
cell line,measurement,setting,value
A549,relative viability,[1]; 0.01 µM,1
same,relative viability,[1]; 0.03162 µM,0.83
same,relative viability,[1]; 0.1 µM,0.639
same,relative viability,[1]; 0.3162 µM,0.19
same,relative viability,[1]; 1 µM,0.106
same,relative viability,[2]; first compound 0.01 µM,1.21
same,relative viability,[2]; first compound 0.03162 µM,0.74
same,relative viability,[2]; first compound 0.1 µM,0.454
same,relative viability,[2]; first compound 0.3162 µM,0.189
same,relative viability,[2]; first compound 1 µM,0.143
same,relative viability,[3]; first compound 0.01 µM,0.929
same,relative viability,[3]; first compound 0.03162 µM,0.831
same,relative viability,[3]; first compound 0.1 µM,0.638
same,relative viability,[3]; first compound 0.3162 µM,0.123
same,relative viability,[3]; first compound 1 µM,0.0603
same,relative viability,[4]; first compound 0.01 µM,0.801
same,relative viability,[4]; first compound 0.03162 µM,0.651
same,relative viability,[4]; first compound 0.1 µM,0.404
same,relative viability,[4]; first compound 0.3162 µM,0.307
same,relative viability,[4]; first compound 1 µM,0.122
same,relative viability,[5]; first compound 0.01 µM,0.395
same,relative viability,[5]; first compound 0.03162 µM,0.345
same,relative viability,[5]; first compound 0.1 µM,0.189
same,relative viability,[5]; first compound 0.3162 µM,0.123
same,relative viability,[5]; first compound 1 µM,0.105
same,relative viability,[6]; first compound 0.01 µM,0.674
same,relative viability,[6]; first compound 0.03162 µM,0.689
same,relative viability,[6]; first compound 0.1 µM,0.324
same,relative viability,[6]; first compound 0.3162 µM,0.231
same,relative viability,[6]; first compound 1 µM,0.0846
same,relative viability,[7]; first compound 0.01 µM,0.552
same,relative viability,[7]; first compound 0.03162 µM,0.382
same,relative viability,[7]; first compound 0.1 µM,0.246
same,relative viability,[7]; first compound 0.3162 µM,0.11
same,relative viability,[7]; first compound 1 µM,0.0862
same,relative viability,[8]; first compound 0.01 µM,0.524
same,relative viability,[8]; first compound 0.03162 µM,0.373
same,relative viability,[8]; first compound 0.1 µM,0.223
same,relative viability,[8]; first compound 0.3162 µM,0.0986
same,relative viability,[8]; first compound 1 µM,0.109
same,relative viability,[9]; first compound 0.01 µM,0.175
same,relative viability,[9]; first compound 0.03162 µM,0.155
same,relative viability,[9]; first compound 0.1 µM,0.1
same,relative viability,[9]; first compound 0.3162 µM,0.0798
same,relative viability,[9]; first compound 1 µM,0.0524
same,relative viability,[10]; first compound 0.01 µM,0.389
same,relative viability,[10]; first compound 0.03162 µM,0.101
same,relative viability,[10]; first compound 0.1 µM,0.184
same,relative viability,[10]; first compound 0.3162 µM,0.13
same,relative viability,[10]; first compound 1 µM,0.101
same,relative viability,[11]; first compound 0.01 µM,0.279
same,relative viability,[11]; first compound 0.03162 µM,0.359
same,relative viability,[11]; first compound 0.1 µM,0.21
same,relative viability,[11]; first compound 0.3162 µM,0.142
same,relative viability,[11]; first compound 1 µM,0.0857
